Measurements from patent US10336762B2 (priority 2017, dated 2019).
Where two headings read alike, the source gives them in different places.

How the values were obtained:
TNFα = experiment: cells; assay type: cell-based, human; details: LPS-stimulated human monocytes, read-out: EC50 TNF
IRAK4 enzyme = IRAK4 enzyme (Homo sapiens (Human), UniProt Q9NWZ3); experiment: biochemical; assay type: biochemical; details: IRAK4 enzyme, 500 μM ATP
[1] = Homo sapiens, Monocyte, TNFα content
[2] = Homo sapiens, Monocyte, TNFα by TR-FRET

Chain of IRAK4 enzyme (Q9NWZ3 whole entry): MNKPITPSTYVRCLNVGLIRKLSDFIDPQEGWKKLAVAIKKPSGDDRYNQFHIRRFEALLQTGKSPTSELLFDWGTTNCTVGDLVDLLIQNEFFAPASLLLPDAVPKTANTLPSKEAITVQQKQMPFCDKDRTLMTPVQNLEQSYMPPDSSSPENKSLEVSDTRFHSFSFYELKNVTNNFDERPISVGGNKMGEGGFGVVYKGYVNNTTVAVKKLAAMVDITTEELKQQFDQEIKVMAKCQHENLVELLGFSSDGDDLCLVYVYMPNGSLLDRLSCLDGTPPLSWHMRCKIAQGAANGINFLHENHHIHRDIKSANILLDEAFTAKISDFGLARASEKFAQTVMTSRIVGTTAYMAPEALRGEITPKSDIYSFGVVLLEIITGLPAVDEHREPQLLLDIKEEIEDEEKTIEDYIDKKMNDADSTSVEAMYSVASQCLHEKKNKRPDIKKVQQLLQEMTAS

Structure (SMILES) | EC50 (TNFα; [1]) [µM] | IC50 (IRAK4 enzyme; TR-FRET (HTRF)) [µM] | IC50 (IRAK4 enzyme; TR-FRET) [µM] | further results
N#Cc1cnn2c(-c3cc(NC45CCC(O)(CC4)CC5)c(C(=O)NCC(=O)N4CCCCC4)cn3)ccc2c1 [Example 792, 6-(3-cyanopyrrolo[1,2-b]pyridazin-7-yl)-4-((4-hydroxybicyclo[2.2.2]octan-1-yl)amino)-N-(2-oxo-2-(piperidin-1-yl)ethyl)nicotinamide] | 0.086 | 0.002 | – | –
N#Cc1cnn2c(-c3cc(NC45CCC(O)(CC4)CC5)c(C(=O)NCc4cccnc4)cn3)ccc2c1 [Example 931, 6-(3-cyanopyrrolo[1,2-b]pyridazin-7-yl)-4-((4-hydroxybicyclo[2.2.2]octan-1-yl)amino)-N-(pyridin-3-ylmethyl) nicotinamide] | – | – | 0.003 | EC50 (TNFα; [2]): 0.163 µM
Cc1ncc(-c2ccc(Nc3cc(-c4ccc5cc(C#N)cnn45)ncc3C(=O)NC[C@@H](F)C(C)(C)O)cc2)o1 [Example 207, (R)-6-(3-cyanopyrrolo[1,2-b]pyridazin-7-yl)-N-(2-fluoro-3-hydroxy-3-methylbutyl)-4-((4-(2-methyloxazol-5-yl)phenyl)amino) nicotinamide] | 0.096 | – | 0.001 | –
COCCNC(=O)C12CCC(Nc3cc(-c4ccc5cc(C#N)cnn45)ncc3C(=O)NC[C@@H](F)C(C)(C)O)(CC1)CC2 [Example 397, (R)-6-(3-cyanopyrrolo[1,2-b]pyridazin-7-yl)-N-(2-fluoro-3-hydroxy-3-methylbutyl)-4-((4-((2-methoxyethyl)carbamoyl)bicyclo[2.2.2]octan-1-yl)amino)nicotinamide] | 0.03 | 0.001 | – | –
CC(C)(O)[C@H](F)CNC(=O)c1cnc(-c2ccc3cc(C#N)cnn23)cc1Nc1ccccc1C#N [Example 143, (R)-4-((2-cyanophenyl)amino)-6-(3-cyanopyrrolo[1,2-b]pyridazin-7-yl)-N-(2-fluoro-3-hydroxy-3-methylbutyl)nicotinamide] | 0.72 | – | 0.018 | –
CC(C)(O)[C@H](F)CNC(=O)c1cnc(-c2ccc3cc(C#N)cnn23)cc1N[C@H]1CC[C@H](NC(=O)C2(F)CC2)CC1 [Example 422, 6-(3-cyanopyrrolo[1,2-b]pyridazin-7-yl)-N-((R)-2-fluoro-3-hydroxy-3-methylbutyl)-4-(((1r,4R)-4-(1-fluorocyclopropane-1-carboxamido)cyclohexyl)amino)nicotinamide] | 0.076 | 0.002 | – | –
CC(C)(O)[C@H](F)CNC(=O)c1cnc(-c2ccc3cc(C#N)cnn23)cc1N[C@H]1C[C@H]2CNC[C@H]2C1 [Example 248, 6-(3-cyanopyrrolo[1,2-b]pyridazin-7-yl)-N-((R)-2-fluoro-3-hydroxy-3-methyl-butyl)-4-(((3aR,5r,6aS)-octahydrocyclopenta[c]pyrrol-5-yl)amino) nicotinamide] | 0.545 | – | 0.003 | –
Cc1cc(Nc2cc(-c3ccc4cc(C#N)cnn34)ncc2C(=O)NC[C@@H](F)C(C)(C)O)cnc1F [Example 187, (R)-6-(3-cyanopyrrolo[1,2-b]pyridazin-7-yl)-N-(2-fluoro-3-hydroxy-3-methylbutyl)-4-((6-fluoro-5-methylpyridin-3-yl)amino) nicotinamide] | 0.152 | – | 0.001 | –
N#Cc1cnn2c(-c3cc(Nc4cnn(CC(F)F)c4)c(C(=O)N[C@H]4CC[C@H](NC(=O)C5CC5)CC4)cn3)ccc2c1 [Example 519, 6-(3-cyanopyrrolo[1,2-b]pyridazin-7-yl)-N-((1r,4r)-4-(cyclopropane-carboxamido)cyclohexyl)-4-((1-(2,2-difluoroethyl)-1H-pyrazol-4-yl)amino) nicotinamide] | 0.034 | < 0.001 | – | –
CC(C)(O)[C@H](F)CNC(=O)c1cnc(-c2ccc3cc(C#N)cnn23)cc1NC12CCC(C(=O)N3CCOCC3)(CC1)CC2 [Example 401, (R)-6-(3-cyanopyrrolo[1,2-b]pyridazin-7-yl)-N-(2-fluoro-3-hydroxy-3-methylbutyl)-4-((4-(morpholine-4-carbonyl)bicyclo[2.2.2]octan-1-yl)amino)nicotinamide] | 0.065 | 0.002 | – | –
COC(=O)N1CC[C@H](n2cc(Nc3cc(-c4ccc5cc(C#N)cnn45)ncc3C(=O)NC[C@@H](F)C(C)(C)O)cn2)C1 [Example 224, (S)-methyl 3-(4-((2-(3-cyanopyrrolo[1,2-b]pyridazin-7-yl)-5-(((R)-2-fluoro-3-hydroxy-3-methylbutyl)carbamoyl)pyridin-4-yl)amino)-1H-pyrazol-1-yl) pyrrolidine-1-carboxylate] | 0.075 | – | 0.001 | –
N#Cc1cnn2c(-c3cc(Nc4cnc5c(c4)OCCO5)c(C(=O)N[C@H]4CC[C@H](NC(=O)N5CCOCC5)CC4)cn3)ccc2c1 [Example 861, N-((1r,4r)-4-(6-(3-cyano-pyrrolo[1,2-b]pyridazin-7-yl)-4-((2,3-dihydro-[1,4]dioxino[2,3-b]pyridin-7-yl)amino)nicotinamido)cyclohexyl)morpholine-4-carboxamide] | – | – | < 0.001 | EC50 (TNFα; [2]): 0.016 µM
CC(=O)N[C@H]1C[C@H](Nc2cc(-c3ccc4cc(C#N)cnn34)ncc2C(=O)NC[C@@H](F)C(C)(C)O)C1 [Example 456, 4-(((1r,3R)-3-acetamidocyclobutyl)amino)-6-(3-cyanopyrrolo[1,2-b]pyridazin-7-yl)-N-((R)-2-fluoro-3-hydroxy-3-methylbutyl)nicotinamide] | 0.394 | 0.001 | – | –
CC(C)(O)[C@H](F)CNC(=O)c1cnc(-c2ccc3cc(C#N)cnn23)cc1NC1CC(Cc2cnco2)C1 (single isomer, unassigned) [Example 638] | – | < 0.001 | – | EC50 (TNFα; TNFα content): 0.026 µM
CC(C)(O)[C@H](F)CNC(=O)c1cnc(-c2ccc3cc(C#N)cnn23)cc1Nc1cccc(-c2ncc[nH]2)c1 [Example 221, (R)-4-((3-(1H-imidazol-2-yl)phenyl)amino)-6-(3-cyanopyrrolo[1,2-b]pyridazin-7-yl)-N-(2-fluoro-3-hydroxy-3-methylbutyl)nicotinamide] | 0.098 | – | < 0.001 | –
COC(=O)NCC1(O)CC(Nc2cc(-c3ccc4cc(C#N)cnn34)ncc2C(=O)NC[C@@H](F)C(C)(C)O)C1 (single isomer, unassigned) [Example 760] | – | < 0.001 | – | EC50 (TNFα; TNFα content): 0.033 µM
CC(C)(O)[C@H](F)CNC(=O)c1cnc(-c2ccc3cc(C#N)cnn23)cc1N[C@H]1C[C@H](CO)C1 [Example 536, 6-(3-cyanopyrrolo[1,2-b]pyridazin-7-yl)-N-((R)-2-fluoro-3-hydroxy-3-methylbutyl)-4-(((1r,3R)-3-(hydroxymethyl)cyclo-butyl)amino)nicotinamide] | 0.016 | < 0.001 | – | –
CC(C)(O)[C@H](F)CNC(=O)c1cnc(-c2ccc3cc(C#N)cnn23)cc1NC1CC2(COC2)C1 [Example 82, (R)-4-(2-oxaspiro[3.3]heptan-6-ylamino)-6-(3-cyanopyrrolo[1,2-b]pyridazin-7-yl)-N-(2-fluoro-3-hydroxy-3-methylbutyl) nicotinamide] | 0.079 | – | < 0.001 | –
CC(C)(O)[C@H](F)CNC(=O)c1cnc(-c2ccc3cc(C#N)cnn23)cc1N[C@H]1CC[C@@H](OC(=O)NC2CC2)CC1 [Example 166, (1S,4s)-4-((2-(3-cyano-pyrrolo[1,2-b]pyridazin-7-yl)-5-(((R)-2-fluoro-3-hydroxy-3-methylbutyl)carbamoyl)pyridin-4-yl)amino)cyclohexyl cyclopropylcarbamate] | > 10 | – | 0.741 | –
CC(C)(O)[C@H](F)CNC(=O)c1cnc(-c2ccc3cc(C#N)cnn23)cc1Nc1cnn(C2CNCC2(F)F)c1 (single isomer, unassigned) [Example 868] | – | – | < 0.001 | EC50 (TNFα; TNFα by TR-FRET): 0.053 µM
CC(C)(O)[C@H](F)CNC(=O)c1cnc(-c2ccc3cc(C#N)cnn23)cc1Nc1cncc(OCC(F)(F)F)c1 [Example 857, (R)-6-(3-cyanopyrrolo[1,2-b]pyridazin-7-yl)-N-(2-fluoro-3-hydroxy-3-methylbutyl)-4-((5-(2,2,2-trifluoroethoxy)pyridin-3-yl)amino)nicotinamide] | – | – | < 0.001 | EC50 (TNFα; [2]): 0.009 µM
CC(C)COC(=O)N[C@H]1CC[C@H](Nc2cc(-c3ccc4cc(C#N)cnn34)ncc2C(=O)NC[C@@H](F)C(C)(C)O)CC1 [Example 290, isobutyl ((1R,4r)-4-((2-(3-cyanopyrrolo[1,2-b]pyridazin-7-yl)-5-(((R)-2-fluoro-3-hydroxy-3-methylbutyl)carbamoyl)pyridin-4-yl)amino)cyclohexyl)carbamate] | 0.121 | – | 0.001 | –
CC(=O)OC12CCC(Nc3cc(-c4ccc5cc(C#N)cnn45)ncc3C(=O)NC[C@@H](F)C(C)(C)O)(CC1)CC2 [Example 418, 4-((2-(3-cyanopyrrolo[1,2-b]pyridazin-7-yl)-5-(((R)-2-fluoro-3-hydroxy-3-methylbutyl)carbamoyl)pyridin-4-yl)amino)bicyclo[2.2.2]octan-1-yl acetate] | 0.036 | 0.001 | – | –
CC(C)(O)[C@H](F)CNC(=O)c1cnc(-c2ccc3cc(C#N)cnn23)cc1Nc1ccc(O)nc1 [Example 435, (R)-6-(3-cyanopyrrolo[1,2-b]pyridazin-7-yl)-N-(2-fluoro-3-hydroxy-3-methylbutyl)-4-((6-hydroxypyridin-3-yl)amino)nicotinamide] | > 10 | 10 | – | –
CNC(=O)c1cnc(-c2ccc3cc(C#N)cnn23)cc1NC12CC(C1)C2 [Example 489, 4-(bicyclo[1.1.1]pentan-1-ylamino)-6-(3-cyano-pyrrolo[1,2-b]pyridazin-7-yl)-N-methylnicotinamide] | 0.121 | 0.002 | – | –
CCOC(=O)CCNC(=O)c1cnc(-c2ccc3cc(C#N)cnn23)cc1NC12CCC(O)(CC1)CC2 [Example 801, ethyl 3-(6-(3-cyano-pyrrolo[1,2-b]pyridazin-7-yl)-4-((4-hydroxy-bicyclo[2.2.2]octan-1-yl)amino)nicotinamido) propanoate] | – | – | 0.001 | EC50 (TNFα; [2]): 0.057 µM
